Source: patent US20230085307A1, “PYRIDAZINONE COMPOUND AND HERBICIDE” (NISSAN CHEMICAL CORPORATION, priority 2019, published 2023)

What was measured:
[1] = system: oval-leafed pondweed; assay: Test Example 1: herbicidal activity, application before weed generation under submerged conditions (Table 16, symbol C); format: in vivo, oval-leafed pondweed (Monochoria vaginalis); settings: 320 g/ha applied herbicide
Procedure, shortened: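 Submerged Wagner pots (alluvial soil, 4 cm water) sown with weed seeds and planted with 2.5-leaf rice seedlings; emulsifiable concentrate diluted in water applied to water surface on sowing day. Held in greenhouse at 25-30 °C; injury scored 0-5 by herbicidal rate after three weeks.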

[2] = system: green foxtail; assay: Test Example 4: herbicidal effect by soil treatment (Table 19, symbol G); format: in vivo, green foxtail (Setaria viridis); settings: for herbicidal effect rating, G: green foxtail: 320 g/ha
Procedure, shortened: (§1)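 Step 1: sow seeds in sterilized diluvial soil, cover ~1.5 cm. Step 2: spray diluted emulsion onto soil surface at predetermined rate. Step 3: greenhouse, 25–30° C, three weeks. Step 4: grade effect on each plant by earlier criteria.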

[3] = system: oval-leafed pondweed; assay: Test Example 2: herbicidal activity, application during weed generation under submerged conditions (Table 17, symbol C); format: in vivo, oval-leafed pondweed (Monochoria vaginalis); settings: AAH 320 g/ha; application during weed generation, submerged conditions
Procedure, shortened: (§2)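 Alluvial soil in Wagner pots was flooded to 4 cm depth and sown with the three weeds together; pots were kept in a greenhouse at 25° C. to 30° C. At the one to two leaf stage, an emulsion formulation diluted in water to a set rate went onto the water surface; scored three weeks later.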

[4] = system: Italian ryegrass; assay: Test Example 4: herbicidal effect by soil treatment (Table 19, symbol K); format: in vivo, Italian ryegrass (Lolium multiflorum); settings: for herbicidal effect rating, K: Italian ryegrass: 320 g/ha
Procedure, shortened: as §1

[5] = system: blackgrass; assay: Test Example 5: herbicidal effect by foliage application, plastic box (Table 20, symbol J); format: in vivo, blackgrass (Alopecurus myosuroides); settings: foliage application, 320 g/ha, 3 weeks after application
Procedure, shortened: (§3)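 Foliar spray test: emulsion formulation diluted in water to a set application rate, sprayed onto 14-day-old plants raised in diluvial soil at 25° C to 30° C under glass. Both herbicidal effect and crop effect rated visually three weeks later.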

[6] = system: late watergrass; assay: Test Example 2: herbicidal activity, application during weed generation under submerged conditions (Table 17, symbol A); format: in vivo, late watergrass (Echinochloa oryzicola); settings: AAH 320 g/ha; application during weed generation, submerged conditions
Procedure, shortened: as §2

[7] = system: rice flat sedge; assay: Test Example 3: herbicidal effect by foliage application, Wagner pot (Table 18, symbol E); format: in vivo, rice flat sedge (Cyperus iria); settings: 320 g/ha
Procedure, shortened: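 Plants were sown in alluvial soil held under 0.1–0.5 cm standing water and grown 14 days in a greenhouse at 25–30 °C. An emulsifiable formulation, water-diluted to the set dose, was then sprayed onto the foliage, and effects were scored three weeks later using previously defined criteria.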

[8] = system: wild oat; assay: Test Example 4: herbicidal effect by soil treatment (Table 19, symbol I); format: in vivo, wild oat (Avena fatua); settings: for herbicidal effect rating, I: wild oat: 320 g/ha
Procedure, shortened: as §1

[9] = system: redroot pigweed; assay: Test Example 4: herbicidal effect by soil treatment (Table 19, symbol N); format: in vivo, redroot pigweed (Amaranthus retroflexus); settings: for herbicidal effect rating, N: redroot pigweed: 320 g/ha
Procedure, shortened: as §1

[10] = system: persian speedwell; assay: Test Example 4: herbicidal effect by soil treatment (Table 19, symbol R); format: in vivo, Persian speedwell (Veronica persica); settings: for herbicidal effect rating, R: persian speedwell: 320 g/ha
Procedure, shortened: as §1

[11] = system: chickweed; assay: Test Example 4: herbicidal effect by soil treatment (Table 19, symbol P); format: in vivo, common chickweed (Stellaria media); settings: for herbicidal effect rating, P: chickweed: 320 g/ha
Procedure, shortened: as §1

[12] = system: green foxtail; assay: Test Example 5: herbicidal effect by foliage application, plastic box (Table 20, symbol G); format: in vivo, green foxtail (Setaria viridis); settings: foliage application, 320 g/ha, 3 weeks after application
Procedure, shortened: as §3

[13] = system: blackgrass; assay: Test Example 4: herbicidal effect by soil treatment (Table 19, symbol J); format: in vivo, blackgrass (Alopecurus myosuroides); settings: for herbicidal effect rating, J: blackgrass: 320 g/ha
Procedure, shortened: as §1

[14] = system: barnyard grass; assay: Test Example 5: herbicidal effect by foliage application, plastic box (Table 20, symbol H); format: in vivo, barnyard grass (Echinochloa crus-galli); settings: foliage application, 320 g/ha, 3 weeks after application
Procedure, shortened: as §3

Structure (SMILES)	Herbicidal effect on C: oval-leafed pondweed (grade 0-5) [1]	herbicidal effect rating, C: oval-leafed pondweed [3]	effect on blackgrass (J) [5]	herbicidal effect rating, A: late watergrass [6]	herbicidal effect on E (rice flat sedge), rating 0-5 [7]	effect on green foxtail (G) [12]	effect on barnyard grass (H) [14]	herbicidal effect rating, G: green foxtail [2]	herbicidal effect rating, K: Italian ryegrass [4]	herbicidal effect rating, I: wild oat [8]	herbicidal effect rating, N: redroot pigweed [9]	herbicidal effect rating, R: persian speedwell [10]	herbicidal effect rating, P: chickweed [11]	herbicidal effect rating, J: blackgrass [13]	other results
Cc1nn(C)c(=O)c(-c2c(-c3ccc(F)cc3)sc3ccc(F)cc23)c1O [2-001]	1 (Herbicidal rate of 5% or more and less than 20%)	3 (Herbicidal rate of 40% or more and less than 70%)	4 (Herbicidal rate of 70% or more and less than 90%)	1 (Herbicidal rate of 5% or more and less than 20%)	5 (Herbicidal rate of 90% or more (almost completely withered))	5 (Herbicidal rate of 90% or more (almost completely withered))	5 (Herbicidal rate of 90% or more (almost completely withered))								G: green foxtail, herbicidal effect rating ([2]; AAH 320 g/ha): 4 (Herbicidal rate of 70% or more and less than 90%); K: Italian ryegrass, herbicidal effect rating ([4]; AAH 320 g/ha): 4 (Herbicidal rate of 70% or more and less than 90%); I: wild oat, herbicidal effect rating ([8]; AAH 320 g/ha): 3 (Herbicidal rate of 40% or more and less than 70%); N: redroot pigweed, herbicidal effect rating ([9]; AAH 320 g/ha): 5 (Herbicidal rate of 90% or more (almost completely withered)); R: persian speedwell, herbicidal effect rating ([10]; AAH 320 g/ha): 5 (Herbicidal rate of 90% or more (almost completely withered)); P: chickweed, herbicidal effect rating ([11]; AAH 320 g/ha): 4 (Herbicidal rate of 70% or more and less than 90%); J: blackgrass, herbicidal effect rating ([13]; AAH 320 g/ha): 2 (Herbicidal rate of 20% or more and less than 40%)
CCCC(=O)Oc1c(C)nn(C)c(=O)c1-c1c(-c2ccc(Cl)cc2)sc2ccc(F)cc12 [2-011]	3 (Herbicidal rate of 40% or more and less than 70%)	3 (Herbicidal rate of 40% or more and less than 70%)	2 (Herbicidal rate of 20% or more and less than 40%)	2 (Herbicidal rate of 20% or more and less than 40%)	5 (Herbicidal rate of 90% or more (almost completely withered))	5 (Herbicidal rate of 90% or more (almost completely withered))	5 (Herbicidal rate of 90% or more (almost completely withered))	2 (Herbicidal rate of 20% or more and less than 40%)	5 (Herbicidal rate of 90% or more (almost completely withered))	0 (Herbicidal rate of 5% or less (almost no effect))	4 (Herbicidal rate of 70% or more and less than 90%)	4 (Herbicidal rate of 70% or more and less than 90%)	2 (Herbicidal rate of 20% or more and less than 40%)	0 (Herbicidal rate of 5% or less (almost no effect))	
CCCC(=O)Oc1c(C)nn(C)c(=O)c1-c1c(-c2ccc(CC)cc2)sc2ccc(F)cc12 [2-016]	5 (Herbicidal rate of 90% or more (almost completely withered))	4 (Herbicidal rate of 70% or more and less than 90%)	1 (Herbicidal rate of 5% or more and less than 20%)	3 (Herbicidal rate of 40% or more and less than 70%)	5 (Herbicidal rate of 90% or more (almost completely withered))	0 (Herbicidal rate of 5% or less (almost no effect))	3 (Herbicidal rate of 40% or more and less than 70%)	0 (Herbicidal rate of 5% or less (almost no effect))	3 (Herbicidal rate of 40% or more and less than 70%)	0 (Herbicidal rate of 5% or less (almost no effect))	5 (Herbicidal rate of 90% or more (almost completely withered))	4 (Herbicidal rate of 70% or more and less than 90%)	1 (Herbicidal rate of 5% or more and less than 20%)	2 (Herbicidal rate of 20% or more and less than 40%)	
C=Cc1ccc(-c2sc3ccc(F)cc3c2-c2c(O)c(C)nn(C)c2=O)cc1 [2-018]	0 (Herbicidal rate of 5% or less (almost no effect))	3 (Herbicidal rate of 40% or more and less than 70%)	1 (Herbicidal rate of 5% or more and less than 20%)	3 (Herbicidal rate of 40% or more and less than 70%)	5 (Herbicidal rate of 90% or more (almost completely withered))	5 (Herbicidal rate of 90% or more (almost completely withered))	4 (Herbicidal rate of 70% or more and less than 90%)	1 (Herbicidal rate of 5% or more and less than 20%)	4 (Herbicidal rate of 70% or more and less than 90%)	0 (Herbicidal rate of 5% or less (almost no effect))	4 (Herbicidal rate of 70% or more and less than 90%)	4 (Herbicidal rate of 70% or more and less than 90%)	3 (Herbicidal rate of 40% or more and less than 70%)	0 (Herbicidal rate of 5% or less (almost no effect))	
COCc1ccc(-c2sc3ccc(F)cc3c2-c2c(O)c(C)nn(C)c2=O)cc1 [2-022]	5 (Herbicidal rate of 90% or more (almost completely withered))	4 (Herbicidal rate of 70% or more and less than 90%)	4 (Herbicidal rate of 70% or more and less than 90%)	2 (Herbicidal rate of 20% or more and less than 40%)	4 (Herbicidal rate of 70% or more and less than 90%)	5 (Herbicidal rate of 90% or more (almost completely withered))	5 (Herbicidal rate of 90% or more (almost completely withered))	5 (Herbicidal rate of 90% or more (almost completely withered))	5 (Herbicidal rate of 90% or more (almost completely withered))	0 (Herbicidal rate of 5% or less (almost no effect))	5 (Herbicidal rate of 90% or more (almost completely withered))	5 (Herbicidal rate of 90% or more (almost completely withered))	3 (Herbicidal rate of 40% or more and less than 70%)	4 (Herbicidal rate of 70% or more and less than 90%)	
